Article PMC10145973, “Genomic Insights into Bacterial Resistance to Proline-Rich Antimicrobial Peptide Bac7” (Membranes, 2023)
≈ marks a conversion by molar mass, not a printed value. Where “and” joins values, the source holds several entries; their conditions need not be identical. Identical values can stand only once. Where a SMILES comes first, the peptide text is derived from it. Bridges are numbered along the chain shown (N, C = ends).

What was measured:
[1] = tested on: E. coli MDR 1057 P1; experiment: microbe, parasite or virus in culture; settings: Escherichia coli, MDR1057P1, 24 h, read-out: Minimum Inhibitory Concentration, P1
[2] = tested on: E. coli MDR 1057 WT; experiment: microbe, parasite or virus in culture; settings: Escherichia coli, MDR1057WT, 24 h, read-out: Minimum Inhibitory Concentration, WT
[3] = tested on: E. coli MDR 1057 B3; experiment: microbe, parasite or virus in culture; settings: Escherichia coli, MDR1057B3, 24 h, read-out: Minimum Inhibitory Concentration, B3
[4] = tested on: E. coli MDR 1057 B2; experiment: microbe, parasite or virus in culture; settings: Escherichia coli, MDR1057B2, 24 h, read-out: Minimum Inhibitory Concentration, B2
[5] = tested on: E. coli MDR 1057 B2; settings: Table 2; broth microdilution in MHB (medium ±0.9% NaCl not given), 0.1% BSA, 24 h, 37 °C; median of at least three independent experiments in triplicate
[6] = tested on: E. coli MDR 1057 P1; settings: Table 2; broth microdilution in MHB (medium ±0.9% NaCl not given), 0.1% BSA, 24 h, 37 °C; median of at least three independent experiments in triplicate
[7] = tested on: E. coli MDR 1057 WT; settings: Table 2; broth microdilution in MHB (medium ±0.9% NaCl not given), 10^6 CFU/mL suspension, agents diluted in 0.1% BSA, 24 h, 37 °C, visible turbidity; median of at least three independent experiments in triplicate
[8] = tested on: E. coli MDR 1057 B3; settings: Table 2; broth microdilution in MHB (medium ±0.9% NaCl not given), 0.1% BSA, 24 h, 37 °C; median of at least three independent experiments in triplicate
[9] = tested on: extensively drug-resistant Klebsiella pneumoniae isolate; set-up: method as in PMID 30445429; settings: serially passaged in the presence of the agent; cited from earlier work
[10] = tested on: resistant Salmonella enterica strain (pmrB mutations); settings: cited from earlier work

Row | Compound | MIC [1] | MIC [2] | MIC [3] | MIC [4] | Minimum Inhibitory Concentration, B2 [5] | Minimum Inhibitory Concentration, P1 [6] | Minimum Inhibitory Concentration, WT [7] | Minimum Inhibitory Concentration, B3 [8] | increase in MIC after serial passage [9] | MIC after a single pmrB mutation [10]
1 | CC[C@H]1OC(=O)[C@H](C)[C@@H](O[C@H]2C[C@@](C)(OC)[C@@H](O)[C@H](C)O2)[C@H](C)[C@@H](O[C@@H]2O[C@H](C)C[C@H](N(C)C)[C@H]2O)[C@](C)(O)C[C@@H](C)/C(=N\OCOCCOC)[C@H](C)[C@@H](O)[C@]1(C)O [Roxithromycin] | > 256 µM | 256 µM (≈ 214 µg/mL) | 256 µM (≈ 214 µg/mL) | 256 µM (≈ 214 µg/mL) |  |  |  |  |  | 
2 | CC[C@H](C)[C@H](NC(=O)[C@@H]1CCCN1C(=O)CNC(=O)[C@@H](NC(=O)[C@H](Cc1ccccc1)NC(=O)[C@@H]1CCCN1C(=O)CNC(=O)[C@@H](NC(=O)[C@H](CCCCN)NC(=O)[C@H](Cc1c[nH]cn1)NC(=O)[C@H](Cc1c[nH]c2ccccc12)NC(=O)[C@H](CC(C)C)NC(=O)[C@H](CCCNC(=N)N)NC(=O)[C@H](CCCCN)NC(=O)[C@H](CC(C)C)NC(=O)[C@H](CCCCN)NC(=O)[C@H](CCCCN)NC(=O)[C@H](CCCNC(=N)N)NC(=O)[C@H](Cc1ccccc1)NC(=O)[C@H](CCCNC(=N)N)NC(=O)[C@H](CCCCN)NC(=O)[C@H](Cc1ccccc1)NC(=O)[C@H](CCCNC(=N)N)NC(=O)CN)C(C)C)C(C)C)C(=O)N[C@@H](CC(C)C)C(=O)N[C@@H](Cc1c[nH]cn1)C(=O)N[C@@H](Cc1ccc(O)cc1)C(=O)O [ChMAP-28] (H-GRFKRFRKKLKRLWHKVGPFVGPILHY-OH) |  |  |  |  | 0.063 µM | 0.063 µM | 0.063 µM | 0.063 µM |  | 
3 | CC1(C)S[C@@H]2[C@H](NC(=O)[C@H](N)c3ccccc3)C(=O)N2[C@H]1C(=O)O [Ampicillin] | 256 µM (≈ 89.4 µg/mL) | 256 µM (≈ 89.4 µg/mL) | 256 µM (≈ 89.4 µg/mL) | 256 µM (≈ 89.4 µg/mL) |  |  |  |  |  | 
4 | O=C(O)c1cn(C2CC2)c2cc(N3CCNCC3)c(F)cc2c1=O [Ciprofloxacin] | 128 µM (≈ 42.4 µg/mL) |  |  | 128 µM (≈ 42.4 µg/mL) |  |  |  |  |  | 
5 | colistin |  |  |  |  |  |  |  |  | ≥ 1000 fold | up to 3 µg/mL and ≤ 4 µM
6 | CO[C@H]1/C=C/O[C@@]2(C)Oc3c(C)c(O)c4c(O)c(c(/C=N/N5CCN(C)CC5)c(O)c4c3C2=O)NC(=O)/C(C)=C\C=C\[C@H](C)[C@H](O)[C@@H](C)[C@@H](O)[C@@H](C)[C@H](OC(C)=O)[C@@H]1C [Rifampicin] | 64 µM (≈ 52.7 µg/mL) | 64 µM (≈ 52.7 µg/mL) | 64 µM (≈ 52.7 µg/mL) | 128 µM (≈ 105 µg/mL) |  |  |  |  |  | 
7 | CC(C)C[C@H](NC(=O)[C@H](CCCNC(=N)N)NC(=O)[C@@H]1CCCN1C(=O)[C@@H]1CCCN1C(=O)[C@H](Cc1ccccc1)NC(=O)[C@H](Cc1ccccc1)NC(=O)[C@@H]1CCCN1C(=O)[C@@H]1CCCN1C(=O)[C@@H]1CCCN1C(=O)[C@H](CCCNC(=N)N)NC(=O)[C@@H]1CCCN1C(=O)[C@H](CCCNC(=N)N)NC(=O)[C@@H]1CCCN1C(=O)[C@H](CC(C)C)NC(=O)[C@H](Cc1ccc(O)cc1)NC(=O)[C@@H]1CCCN1C(=O)[C@@H]1CCCN1C(=O)[C@H](CCCNC(=N)N)NC(=O)[C@@H]1CCCN1C(=O)[C@H](CCCNC(=N)N)NC(=O)[C@H](CCCNC(=N)N)NC(=O)[C@@H](N)CCCNC(=N)N)C(=O)O [PR-39_1-22] (H-RRRPRPPYLPRPRPPPFFPPRL-OH) |  |  |  |  | >32 µM | 16 µM | 2 µM | >32 µM |  | 
8 | CN[C@@H]1[C@H](O)[C@H](NC)[C@H]2O[C@@]3(O)C(=O)C[C@@H](C)O[C@H]3O[C@@H]2[C@H]1O [Spectinomycin] | 64 µM (≈ 21.3 µg/mL) | 32 µM (≈ 10.6 µg/mL) | 32 µM (≈ 10.6 µg/mL) | 32 µM (≈ 10.6 µg/mL) |  |  |  |  |  | 
9 | CC(C)[C@@H]1NC(=O)[C@H](Cc2ccc(O)cc2)NC(=O)[C@H](Cc2c[nH]c3ccccc23)NC(=O)[C@@H](NC(=O)[C@H](Cc2ccccc2)NC(=O)CN)CSSC[C@@H](C(=O)N[C@@H](CC(N)=O)C(=O)O)NC(=O)[C@H](CCCNC(=N)N)NC(=O)[C@H](CCCNC(=N)N)NC(=O)[C@H](Cc2ccc(O)cc2)NC(=O)[C@@H]2CSSC[C@H](NC1=O)C(=O)N[C@@H](C)C(=O)N[C@@H](CCCNC(=N)N)C(=O)N[C@@H](CCCNC(=N)N)C(=O)N[C@@H](CC(N)=O)C(=O)NCC(=O)N[C@@H](C)C(=O)N[C@@H](CCCNC(=N)N)C(=O)N[C@@H](C(C)C)C(=O)N2 [AA139] (H-GFCWYVCARRNGARVCYRRCN-OH; disulfide 3-20, 7-16 (inferred)) |  |  |  |  | 0.25 µM | 0.5 µM | 0.25 µM | 1 µM |  | 
10 | O=C(N[C@H](CO)[C@H](O)c1ccc([N+](=O)[O-])cc1)C(Cl)Cl [Chloramphenicol] | 16 µM (≈ 5.17 µg/mL) | 8 µM (≈ 2.59 µg/mL) | 8 µM (≈ 2.59 µg/mL) | 16 µM (≈ 5.17 µg/mL) |  |  |  |  |  | 
11 | CC(C)C[C@H](NC(=O)[C@H](CCCNC(=N)N)NC(=O)[C@@H](N)CCCNC(=N)N)C(=O)N[C@@H](CCCNC(=N)N)C(=O)N1CCC[C@H]1C(=O)N[C@@H](CCCNC(=N)N)C(=O)N[C@@H](CCCNC(=N)N)C(=O)N1CCC[C@H]1C(=O)N[C@@H](CCCNC(=N)N)C(=O)N[C@@H](CC(C)C)C(=O)N1CCC[C@H]1C(=O)N[C@@H](CCCNC(=N)N)C(=O)N1CCC[C@H]1C(=O)N[C@@H](CCCNC(=N)N)C(=O)N1CCC[C@H]1C(=O)N[C@@H](CCCNC(=N)N)C(=O)N1CCC[C@H]1C(=O)N[C@@H](CCCNC(=N)N)C(=O)N1CCC[C@H]1C(=O)N[C@@H](CCCNC(=N)N)C(=O)N1CCC[C@H]1C(=O)N[C@@H](CCCNC(=N)N)C(=O)O [mini-ChBac7.5Nα] (H-RRLRPRRPRLPRPRPRPRPRPR-OH) |  |  |  |  | >32 µM | >32 µM | 8 µM | >32 µM |  | 
12 | CNC(C)C1CCC(N)C(OC2C(N)CC(N)C(OC3OCC(C)(O)C(NC)C3O)C2O)O1 (centres unmarked) [Gentamicin] | 4 µM (≈ 1.91 µg/mL) | 2 µM (≈ 0.955 µg/mL) | 2 µM (≈ 0.955 µg/mL) | 2 µM (≈ 0.955 µg/mL) |  |  |  |  |  | 
13 | CC(C)C[C@H](NC(=O)[C@H](CCCNC(=N)N)NC(=O)CNC(=O)CNC(=O)[C@@H](N)CCCNC(=N)N)C(=O)N[C@H]1CSSC[C@@H](C(=O)N[C@H](C(=O)NCC(=O)N[C@@H](CCCNC(=N)N)C(=O)O)C(C)C)NC(=O)[C@H](C(C)C)NC(=O)[C@@H]2CSSC[C@H](NC(=O)[C@H](Cc3ccc(O)cc3)NC1=O)C(=O)N[C@@H](CCCNC(=N)N)C(=O)N[C@@H](CCCNC(=N)N)C(=O)N[C@@H](CCCNC(=N)N)C(=O)N[C@@H](Cc1ccccc1)C(=O)N2 [Protegrin-1] (H-RGGRLCYCRRRFCVCVGR-OH; disulfide 6-15, 8-13; N-terminus and C-terminus assumed) |  |  |  |  | 0.25 µM | 0.25 µM | 0.25 µM | 0.25 µM |  | 
14 | CC[C@H](C)[C@H](NC(=O)[C@H](CCCCN)NC(=O)[C@H](CCC(=O)O)NC(=O)[C@H](CCCCN)NC(=O)[C@H](CO)NC(=O)[C@H](CCCCN)NC(=O)[C@H](CCCNC(=N)N)NC(=O)[C@H](Cc1ccccc1)NC(=O)[C@H](Cc1ccccc1)NC(=O)[C@H](CC(=O)O)NC(=O)CNC(=O)[C@H](CC(C)C)NC(=O)[C@@H](N)CC(C)C)C(=O)NCC(=O)N[C@@H](CCCCN)C(=O)N[C@@H](CCC(=O)O)C(=O)N[C@@H](Cc1ccccc1)C(=O)N[C@@H](CCCCN)C(=O)N[C@@H](CCCNC(=N)N)C(=O)N[C@H](C(=O)N[C@H](C(=O)N[C@@H](CCC(N)=O)C(=O)N[C@@H](CCCNC(=N)N)C(=O)N[C@H](C(=O)N[C@@H](CCCCN)C(=O)N[C@@H](CC(=O)O)C(=O)N[C@@H](Cc1ccccc1)C(=O)N[C@@H](CC(C)C)C(=O)N[C@@H](CCCNC(=N)N)C(=O)N[C@@H](CC(N)=O)C(=O)N[C@@H](CC(C)C)C(=O)N[C@H](C(=O)N1CCC[C@H]1C(=O)N[C@@H](CCCNC(=N)N)C(=O)N[C@H](C(=O)N[C@@H](CCC(=O)O)C(=O)N[C@@H](CO)C(=O)O)[C@@H](C)O)C(C)C)[C@@H](C)CC)C(C)C)[C@@H](C)CC [LL-37] |  |  |  |  | 2 µM | 1 µM | 4 µM | 2 µM |  | 
15 | CO/N=C(\C(=O)N[C@@H]1C(=O)N2C(C(=O)O)=C(CSc3nc(=O)c(=O)[nH]n3C)CS[C@H]12)c1csc(N)n1 [Ceftriaxone] | 128 µM (≈ 71 µg/mL) | 128 µM (≈ 71 µg/mL) | 128 µM (≈ 71 µg/mL) | 128 µM (≈ 71 µg/mL) |  |  |  |  |  | 
